In ChEMBL document CHEMBL1201862, “PubChem BioAssay data set” (2004):
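Exposure lasted 48 hours, with cells grown in 96-well plates and compounds tested at five concentrations. The concentration for 50% growth inhibition is given as GI50.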 Calls of active or inactive are those of the source. Rule as the data show it: active = GI50 up to about 1.1 µM and inactive = higher.

What was measured:
Assay in all cases: inhibition of tumour cell growth, NCI panel, 48 h
DU-145 = test system: DU-145
SK-OV-3 = test system: SK-OV-3
MDA-MB-231 = test system: MDA-MB-231
HOP-92 = test system: HOP-92
MDA-MB-435 = test system: MDA-MB-435
A549 = test system: A549
U-251 = test system: U-251
SNB-75 = test system: SNB-75
OVCAR-8 = test system: OVCAR-8
KM12 = test system: KM12
UO-31 = test system: UO-31
NCI-H460 = test system: NCI-H460
UACC-257 = test system: UACC-257
HOP-62 = test system: HOP-62
SK-MEL-5 = test system: SK-MEL-5
HCC 2998 = test system: HCC 2998
COLO 205 = test system: COLO 205
EKVX = test system: EKVX
OVCAR-3 = test system: OVCAR-3
RPMI-8226 = test system: RPMI-8226

Measured: GI50

O=C1OC(c2ccc(O)c(-c3ccccc3)c2)(c2ccc(O)c(-c3ccccc3)c2)c2c(Cl)c(Cl)c(Cl)c(Cl)c21
inactive: DU-145 > 100 µM | SK-OV-3 > 100 µM | MDA-MB-231 > 100 µM | HOP-92 > 100 µM | MDA-MB-435 > 100 µM | A549 > 100 µM | U-251 > 100 µM | SNB-75 > 100 µM | OVCAR-8 > 100 µM | KM12 > 100 µM | UO-31 > 100 µM | NCI-H460 > 100 µM | UACC-257 > 100 µM | HOP-62 > 100 µM | SK-MEL-5 > 100 µM | HCC 2998 > 100 µM | COLO 205 > 100 µM | EKVX > 100 µM | OVCAR-3 > 100 µM | RPMI-8226 > 100 µM

NNC(=O)CNc1cccc(Br)c1
inactive: DU-145 > 100 µM | SK-OV-3 > 100 µM | MDA-MB-231 > 100 µM | HOP-92 > 100 µM | MDA-MB-435 > 100 µM | A549 > 100 µM | U-251 > 100 µM | SNB-75 > 100 µM | OVCAR-8 > 100 µM | KM12 > 100 µM | UO-31 > 100 µM | NCI-H460 > 100 µM | UACC-257 > 100 µM | HOP-62 > 100 µM | SK-MEL-5 > 100 µM | HCC 2998 > 100 µM | COLO 205 > 100 µM | EKVX > 100 µM | OVCAR-3 > 100 µM | RPMI-8226 > 100 µM

OCC1OC(NC(=S)NCSCCC(F)(F)C(F)(F)C(F)(F)C(F)(F)C(F)(F)C(F)(F)F)C(O)C(O)C1O (stereo unspecified)
inactive: DU-145 81.8 µM | SK-OV-3 82 µM | MDA-MB-231 > 100 µM | HOP-92 22.7 µM | MDA-MB-435 16.4 µM | A549 58.1 µM | U-251 17.5 µM | SNB-75 96.4 µM | KM12 38.7 µM | UO-31 > 100 µM | NCI-H460 34 µM | UACC-257 46.6 µM | HOP-62 32.4 µM | SK-MEL-5 > 10 µM | HCC 2998 43.8 µM | COLO 205 77.4 µM | OVCAR-3 86.9 µM | RPMI-8226 63.8 µM

Nc1n[nH]c2nc3ccc(C(F)(F)F)cc3nc12
inactive: DU-145 16.7 µM | SK-OV-3 20.5 µM | MDA-MB-231 43.6 µM | HOP-92 25.1 µM | MDA-MB-435 64.9 µM | A549 30.5 µM | U-251 39.5 µM | SNB-75 13.6 µM | OVCAR-8 19.8 µM | KM12 57.1 µM | UO-31 17.6 µM | NCI-H460 20.5 µM | UACC-257 21.8 µM | HOP-62 18.5 µM | SK-MEL-5 48.9 µM | HCC 2998 37.7 µM | COLO 205 16 µM | EKVX 7.87 µM | RPMI-8226 62.2 µM

C#C/C=C/CC1OC(C(Br)CC)CC(Br)C2CC1O2 (stereo unspecified)
inactive: DU-145 > 100 µM | SK-OV-3 40.9 µM | MDA-MB-231 > 100 µM | HOP-92 22.8 µM | MDA-MB-435 86.5 µM | A549 68.7 µM | U-251 78 µM | SNB-75 52.1 µM | OVCAR-8 61.1 µM | KM12 60.5 µM | NCI-H460 > 100 µM | UACC-257 > 100 µM | HOP-62 85.7 µM | SK-MEL-5 89.3 µM | HCC 2998 56 µM | COLO 205 82 µM | EKVX 40.6 µM | OVCAR-3 38.5 µM | RPMI-8226 27.1 µM

COC(=O)C(C)(C)NC(=O)C(Cc1ccccc1)Nc1ncnc2c1ncn2-c1ccc(OC)cc1 (stereo unspecified)
inactive: DU-145 47.3 µM | SK-OV-3 46.8 µM | MDA-MB-231 28.6 µM | HOP-92 22.8 µM | MDA-MB-435 14.9 µM | A549 22.5 µM | U-251 26.5 µM | SNB-75 24.1 µM | OVCAR-8 48.2 µM | KM12 25.6 µM | UO-31 96.4 µM | NCI-H460 22.9 µM | UACC-257 39.9 µM | HOP-62 35.2 µM | SK-MEL-5 24.8 µM | HCC 2998 50.7 µM | COLO 205 17.7 µM | EKVX 10.8 µM | OVCAR-3 38.8 µM | RPMI-8226 72.9 µM

CCNC(=O)C1CCCN1C(=O)C(CCCN=C(N)N)NC(=O)C(CC(C)C)NC(=O)C(Cc1c[nH]c2ccccc12)NC(=O)C(Cc1ccc(O)cc1)NC(=O)C(CO)NC(=O)C(Cc1c[nH]c2ccccc12)NC(=O)C(Cc1c[nH]cn1)NC(=O)C1CCC(=O)N1 (stereo unspecified)
inactive: DU-145 > 100 µM | SK-OV-3 > 100 µM | MDA-MB-231 > 100 µM | HOP-92 > 100 µM | MDA-MB-435 > 100 µM | A549 > 100 µM | U-251 > 100 µM | SNB-75 > 100 µM | OVCAR-8 > 100 µM | KM12 > 100 µM | UO-31 > 100 µM | NCI-H460 > 100 µM | UACC-257 > 100 µM | HOP-62 > 100 µM | SK-MEL-5 > 100 µM | HCC 2998 > 100 µM | COLO 205 > 100 µM | EKVX > 100 µM | OVCAR-3 > 100 µM | RPMI-8226 > 100 µM

Nc1nc(NCC2(CO)CC(CCc3ccccc3)C2)cc(=O)[nH]1 (stereo unspecified)
inactive: DU-145 > 100 µM | SK-OV-3 22.2 µM | MDA-MB-231 > 100 µM | HOP-92 > 100 µM | MDA-MB-435 > 100 µM | A549 > 100 µM | U-251 > 100 µM | SNB-75 > 100 µM | OVCAR-8 > 100 µM | KM12 > 100 µM | UO-31 18.2 µM | NCI-H460 > 100 µM | UACC-257 > 100 µM | HOP-62 > 100 µM | SK-MEL-5 > 100 µM | HCC 2998 > 100 µM | COLO 205 > 100 µM | EKVX > 100 µM | OVCAR-3 > 100 µM | RPMI-8226 46.7 µM

O=C(CN1CCN(Cc2ccccc2)CC1)N1CCCn2c1nc1ccccc1c2=O
inactive: DU-145 > 100 µM | SK-OV-3 > 100 µM | MDA-MB-231 > 100 µM | HOP-92 4.58 µM | MDA-MB-435 > 100 µM | A549 > 100 µM | U-251 > 100 µM | SNB-75 > 100 µM | OVCAR-8 > 100 µM | KM12 > 100 µM | UO-31 > 100 µM | NCI-H460 > 100 µM | UACC-257 > 100 µM | HOP-62 > 100 µM | SK-MEL-5 > 100 µM | HCC 2998 > 100 µM | COLO 205 > 100 µM | EKVX > 100 µM | OVCAR-3 > 100 µM | RPMI-8226 > 100 µM

CC[C@@H](/C=C\CCC1(C[C@@H](N)CCC=C(C)C)OCCO1)O[Si](C(C)C)(C(C)C)C(C)C
inactive: DU-145 19.8 µM | SK-OV-3 20 µM | MDA-MB-231 19 µM | HOP-92 14.9 µM | MDA-MB-435 18.4 µM | A549 18.2 µM | U-251 19.9 µM | SNB-75 18.9 µM | OVCAR-8 11.9 µM | KM12 18.1 µM | UO-31 17.6 µM | NCI-H460 18.4 µM | UACC-257 19.3 µM | HOP-62 22 µM | SK-MEL-5 18.1 µM | HCC 2998 13 µM | COLO 205 13.6 µM | EKVX 15.6 µM | OVCAR-3 18.7 µM | RPMI-8226 17.9 µM
